Numbers after ± are expanded uncertainties.
Experiment: xn = mol fraction of the nth substance listed
Details: Liquid; for viscosity: Capillary tube (Ostwald / Ubbelohde) method; for mass density: Vibrating tube method

CCCO [propan-1-ol] + O
Details | mass density, 10000 kPa [kg/m3] | mass density, 20000 kPa [kg/m3] | mass density, 30000 kPa [kg/m3] | mass density, 40000 kPa [kg/m3] | viscosity, 10000 kPa [mPa·s] | viscosity, 20000 kPa [mPa·s] | viscosity, 30000 kPa [mPa·s] | viscosity, 40000 kPa [mPa·s]
350.7 K, x1 = 0.1 | 919.5 ± 11 | 924.38 ± 11 | 929.09 ± 11 | 934.42 ± 11 | 0.591 ± 0.019 | 0.611 ± 0.021 | 0.63 ± 0.023 | 0.635 ± 0.024
350.7 K, x1 = 0.2 | 878.37 ± 11 | 883.66 ± 11 | 889.66 ± 11 | 895.4 ± 11 | 0.723 ± 0.017 | 0.763 ± 0.019 | 0.81 ± 0.02 | 0.826 ± 0.019
350.7 K, x1 = 0.3 | 847.8 ± 10 | 854.62 ± 10 | 861.08 ± 10 | 866.79 ± 10 | 0.77 ± 0.016 | 0.814 ± 0.017 | 0.85 ± 0.017 | 0.861 ± 0.017
350.7 K, x1 = 0.4 | 826 ± 10 | 833.03 ± 10 | 840.74 ± 10 | 847.26 ± 10 | 0.758 ± 0.016 | 0.81 ± 0.017 | 0.86 ± 0.017 | 0.883 ± 0.017
350.7 K, x1 = 0.6 | 796.1 ± 10 | 804.64 ± 10 | 812.37 ± 10 | 819.69 ± 10 | 0.737 ± 0.016 | 0.774 ± 0.016 | 0.848 ± 0.017 | 0.88 ± 0.017
350.7 K, x1 = 0.8 | 776.11 ± 10 | 786.05 ± 10 | 794.61 ± 10 | 802.32 ± 10 | 0.689 ± 0.016 | 0.736 ± 0.016 | 0.827 ± 0.017 | 0.864 ± 0.017
350.7 K, x1 = 1 | 763.09 ± 10 | 772.75 ± 10 | 781.33 ± 10 | 789.02 ± 10 | 0.694 ± 0.015 | 0.753 ± 0.016 | 0.823 ± 0.016 | 0.869 ± 0.017
373.2 K, x1 = 0.1 | 900.32 ± 11 | 905.78 ± 11 | 911.46 ± 11 | 916.96 ± 11 | 0.439 ± 0.015 | 0.441 ± 0.015 | 0.455 ± 0.016 | 0.463 ± 0.016
373.2 K, x1 = 0.2 | 857.3 ± 11 | 863.27 ± 11 | 869.79 ± 11 | 875.69 ± 11 | 0.504 ± 0.016 | 0.513 ± 0.017 | 0.533 ± 0.018 | 0.547 ± 0.019
373.2 K, x1 = 0.3 | 827.05 ± 10 | 834.28 ± 10 | 842.03 ± 10 | 848.33 ± 10 | 0.531 ± 0.016 | 0.55 ± 0.017 | 0.577 ± 0.017 | 0.599 ± 0.017
373.2 K, x1 = 0.4 | 804.56 ± 10 | 813.43 ± 10 | 820.4 ± 10 | 827.89 ± 10 | 0.514 ± 0.016 | 0.542 ± 0.017 | 0.57 ± 0.017 | 0.6 ± 0.017
373.2 K, x1 = 0.6 | 774.56 ± 10 | 784.28 ± 10 | 792.47 ± 10 | 800.74 ± 10 | 0.51 ± 0.016 | 0.541 ± 0.016 | 0.576 ± 0.017 | 0.611 ± 0.017
373.2 K, x1 = 0.8 | 755.44 ± 10 | 765.59 ± 10 | 774.18 ± 10 | 782.84 ± 10 | 0.49 ± 0.014 | 0.531 ± 0.015 | 0.572 ± 0.016 | 0.614 ± 0.016
373.2 K, x1 = 1 | 741.54 ± 10 | 752.5 ± 10 | 762.28 ± 10 | 770.94 ± 10 | 0.488 ± 0.015 | 0.533 ± 0.015 | 0.581 ± 0.016 | 0.613 ± 0.017
476.2 K, x1 = 0.1 | 790.18 ± 11 | 799.73 ± 11 | 810.27 ± 11 | 818.93 ± 11 | 0.161 ± 0.011 | 0.171 ± 0.011 | 0.175 ± 0.011 | 0.179 ± 0.012
476.2 K, x1 = 0.2 | 739.33 ± 11 | 752.08 ± 11 | 764.81 ± 11 | 775.35 ± 11 | 0.162 ± 0.012 | 0.172 ± 0.012 | 0.181 ± 0.012 | 0.189 ± 0.012
476.2 K, x1 = 0.3 | 702.79 ± 11 | 718.75 ± 10 | 733.87 ± 10 | 745.92 ± 10 | 0.157 ± 0.012 | 0.17 ± 0.012 | 0.183 ± 0.012 | 0.195 ± 0.012
476.2 K, x1 = 0.4 | 678.7 ± 10 | 697.03 ± 10 | 713.61 ± 10 | 726.38 ± 10 | 0.153 ± 0.012 | 0.17 ± 0.012 | 0.189 ± 0.012 | 0.21 ± 0.012
476.2 K, x1 = 0.6 | 646.98 ± 10 | 667.25 ± 10 | 686.56 ± 10 | 700.42 ± 10 | 0.145 ± 0.012 | 0.161 ± 0.012 | 0.178 ± 0.012 | 0.195 ± 0.012
476.2 K, x1 = 0.8 | 627.55 ± 10 | 651.81 ± 10 | 672.08 ± 10 | 686.68 ± 10 | 0.139 ± 0.012 | 0.157 ± 0.012 | 0.173 ± 0.012 | 0.188 ± 0.012
476.2 K, x1 = 1 | 612.56 ± 10 | 640.86 ± 10 | 662.44 ± 10 | 677.8 ± 10 | 0.137 ± 0.012 | 0.157 ± 0.012 | 0.176 ± 0.012 | 0.192 ± 0.012
